pIC50: −log10 of the molar value.
System: ATXN3 transcripts containing exon 4
Test: ATXN3 quantitative splicing assay (qPCR, E4E5 primers/probe)
Assay type: cell-based
Conditions: Human neuroblastoma SK-N-MC cells, 24 h treatment, qPCR of transcripts containing exon 4; read-out: ATXN3 Potency - Splicing E4E5 IC50
Procedure: Human neuroblastoma SK-N-MC cells were plated in 384-well plates at 20,000 cells/well. Twenty-four hours after plating, cells were treated with compounds for 24 h at appropriate concentrations ranging from 30 μM to 0.6 nM (0.3% DMSO). Treated cells were lysed in 15 μL of lysis buffer, and cDNA was synthesized using the Fast Advanced Cells-to-Ct kit. Two μL of each cDNA was used in qPCR reactions to confirm the exon 4 skipped transcripts of ATXN3. A second set of primers/probe E4E5 was used to detect the transcripts containing exon 4. The third set of primers/probe E8E9 was used to detect total gene level of ATXN3. The qPCR reactions were prepared in 384-well plates in 10 μL volume, using TaqMan™ Fast Advanced Master Mix with primers and probes shown in the table below. Reactions were run in a Quant Studio 6 qPCR instrument with default settings.
The primers and probes are listed below in Table 3.

Structure (SMILES)	pIC50
Cc1c(C[C@@H](N)CC2CC2)cc2c(NCc3ccncc3)nc(Cl)nn12 [Compound 8, (S)-6-(2-amino-3-cyclopropylpropyl)-2-chloro-7-methyl-N-(pyridin-4-ylmethyl)pyrrolo[2,1-f][1,2,4]triazin-4-amine]	5.30 to 6.30
Cc1c(C[C@@H](N)CC2CC2)cc2c(NCc3ccncn3)nc(Cl)nn12 [Compound 9, (S)-6-(2-amino-3-cyclopropylpropyl)-2-chloro-7-methyl-N-(pyrimidin-4-ylmethyl)pyrrolo[2,1-f][1,2,4]triazin-4-amine]	5.30 to 6.30
Cc1c(C[C@@H](N)CC2CC2)cc2c(NCc3ccncc3F)nc(Cl)nn12 [Compound 10, (S)-6-(2-amino-3-cyclopropylpropyl)-2-chloro-N-((3-fluoropyridin-4-yl)methyl)-7-methylpyrrolo[2,1-f][1,2,4]triazin-4-amine]	5.30 to 6.30
Cc1c(C[C@@H](N)[C@H](C)F)cc2c(NCc3ccncn3)nc(Cl)nn12 [Compound 6, 6-((2R,3S)-2-amino-3-fluorobutyl)-2-chloro-7-methyl-N-(pyrimidin-4-ylmethyl)pyrrolo[2,1-f][1,2,4]triazin-4-amine]	6.30 to 7.00
C[C@H](F)[C@H](N)Cc1cc2c(NCc3ncccc3F)nc(Cl)nn2c1Br [Compound 3, 6-((2R,3S)-2-amino-3-fluorobutyl)-7-bromo-2-chloro-N-((3-fluoropyridin-2-yl)methyl)pyrrolo[2,1-f][1,2,4]triazin-4-amine]	5.30 to 6.30
Cc1c(C[C@@H](N)[C@H](C)F)cc2c(NCc3ccncc3)nc(Cl)nn12 [Compound 5, 6-((2R,3S)-2-amino-3-fluorobutyl)-2-chloro-7-methyl-N-(pyridin-4-ylmethyl)pyrrolo[2,1-f][1,2,4]triazin-4-amine]	6.30 to 7.00
C[C@H](F)[C@H](N)Cc1cc2c(NCc3c(F)cncc3F)nc(Cl)nn2c1Br [Compound 4, 6-((2R,3S)-2-amino-3-fluorobutyl)-7-bromo-2-chloro-N-((3,5-difluoropyridin-4-yl)methyl)pyrrolo[2,1-f][1,2,4]triazin-4-amine]	6.30 to 7.00

Now from value to molecule:

pIC50	Structure (SMILES)
6.30 to 7.00	Cc1c(C[C@@H](N)[C@H](C)F)cc2c(NCc3ccncc3F)nc(Cl)nn12 [Compound 7, 6-((2R,3S)-2-amino-3-fluorobutyl)-2-chloro-N-((3-fluoropyridin-4-yl)methyl)-7-methylpyrrolo[2,1-f][1,2,4]triazin-4-amine]
7.00 to 11.00	C[C@H](F)[C@H](N)Cc1cc2c(NCc3ccncn3)nc(Cl)nn2c1Br [Compound 2, 6-((2R,3S)-2-amino-3-fluorobutyl)-7-bromo-2-chloro-N-(pyrimidin-4-ylmethyl)pyrrolo[2,1-f][1,2,4]triazin-4-amine]
7.00 to 11.00	C[C@H](F)[C@H](N)Cc1cc2c(NCc3ccncc3F)nc(Cl)nn2c1Br [Compound 1, 6-((2R,3S)-2-amino-3-fluorobutyl)-7-bromo-2-chloro-N-((3-fluoropyridin-4-yl)methyl)pyrrolo[2,1-f][1,2,4]triazin-4-amine]
